Values of other authors in US20110293528A1, “ENEMA PREPARATIONS AND THEIR USE” (PHOTOCURE ASA, priority 2008, published 2011).

How the values were obtained:
[1] = system: pre-malignant conditions in the colon (polyps); conditions: enemas of 200 mg HAL in 500 ml or 1000 ml phosphate buffered saline (1.6 and 0.8 mmol per litre)
[2] = system: rectal adenoma or rectal cancer; conditions: 3.2 mmol per litre HAL, instillation time 30-45 minutes, rest time 30 minutes

In the case of `CCCCCCOC(=O)CCC(=O)CN` [5-aminolevulinic acid hexyl ester], the “more polyps detected by PDD than when using white light endoscopic imaging” value [1] is listed as 28% and the “result of photodynamic detection” value [2] is listed as “satisfactory results”.
